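Five compound concentrations were applied to cells in 96-well plates for 48 hours; endpoints were derived by simple linear interpolation of the resulting dose-response curve. GI50 = concentration required for 50% inhibition of growth. TGI denotes the concentration required for complete inhibition of growth.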
Experiments:
Experiment in all cases: NCI-60 cell line screen, 48 h
SK-MEL-5 melanoma = test system: SK-MEL-5 melanoma
TK-10 renal = test system: TK-10 renal
OVCAR-4 ovarian = test system: OVCAR-4 ovarian
RXF 393 renal = test system: RXF 393 renal
SK-OV-3 ovarian = test system: SK-OV-3 ovarian
SK-MEL-28 melanoma = test system: SK-MEL-28 melanoma
SN12C renal = test system: SN12C renal
HOP-62 NSCLC = test system: HOP-62 NSCLC
SNB-19 CNS = test system: SNB-19 CNS
IGROV1 ovarian = test system: IGROV1 ovarian
HCT-15 colon = test system: HCT-15 colon
NCI-H23 lung = test system: NCI-H23 lung
HT29 colon = test system: HT29 colon
COLO 205 colon = test system: COLO 205 colon
HCC-2998 colon = test system: HCC-2998 colon
BT-549 breast = test system: BT-549 breast
HOP-92 NSCLC = test system: HOP-92 NSCLC
OVCAR-8 ovarian = test system: OVCAR-8 ovarian
M14 melanoma = test system: M14 melanoma
CCRF-CEM leukemia = test system: CCRF-CEM leukemia
T-47D breast = test system: T-47D breast
MALME-3M melanoma = test system: MALME-3M melanoma
A549 NSCLC = test system: A549 NSCLC
MDA-MB-231 breast = test system: MDA-MB-231 breast
LOX IMVI melanoma = test system: LOX IMVI melanoma
NCI-H460 lung = test system: NCI-H460 lung
SR leukemia = test system: SR leukemia
NCI/ADR-RES ovarian = test system: NCI/ADR-RES ovarian
HS 578T breast = test system: HS 578T breast
UACC-257 melanoma = test system: UACC-257 melanoma
ACHN renal = test system: ACHN renal
K-562 leukemia = test system: K-562 leukemia
UO-31 renal = test system: UO-31 renal
RPMI-8226 leukemia = test system: RPMI-8226 leukemia
NCI-H226 lung = test system: NCI-H226 lung
MCF7 breast = test system: MCF7 breast
SNB-75 CNS = test system: SNB-75 CNS
HL-60(TB) leukemia = test system: HL-60(TB) leukemia
PC-3 prostate = test system: PC-3 prostate
HCT-116 colon = test system: HCT-116 colon
EKVX NSCLC = test system: EKVX NSCLC
U251 CNS = test system: U251 CNS
KM12 colon = test system: KM12 colon
DU-145 prostate = test system: DU-145 prostate
NCI-H522 lung = test system: NCI-H522 lung
786-0 renal = test system: 786-0 renal
SF-539 CNS = test system: SF-539 CNS
MDA-MB-435 = test system: MDA-MB-435
OVCAR-5 ovarian = test system: OVCAR-5 ovarian
OVCAR-3 ovarian = test system: OVCAR-3 ovarian
SF-295 CNS = test system: SF-295 CNS
MOLT-4 leukemia = test system: MOLT-4 leukemia
CAKI-1 renal = test system: CAKI-1 renal
A498 renal = test system: A498 renal
SW-620 colon = test system: SW-620 colon
SK-MEL-2 melanoma = test system: SK-MEL-2 melanoma
SF-268 CNS = test system: SF-268 CNS
UACC-62 melanoma = test system: UACC-62 melanoma

Compound: C=C1C(=O)O[C@H]2[C@H]1CC/C(Cn1cc(-c3ccccc3)nn1)=C\CC[C@@]1(C)O[C@@H]21
- GI50 (SK-MEL-5 melanoma): 7.32 µM
- TGI (SK-MEL-5 melanoma): 13.9 µM
- GI50 (TK-10 renal): 1.21 µM
- TGI (TK-10 renal): 4.53 µM
- GI50 (OVCAR-4 ovarian): 3.22 µM
- TGI (OVCAR-4 ovarian): 12.1 µM
- GI50 (RXF 393 renal): 1.55 µM
- TGI (RXF 393 renal): 4.22 µM
- GI50 (SK-OV-3 ovarian): 9.95 µM
- TGI (SK-OV-3 ovarian): 17.9 µM
- GI50 (SK-MEL-28 melanoma): 1.06 µM
- TGI (SK-MEL-28 melanoma): 2.48 µM
- GI50 (SN12C renal): 4.5 µM
- TGI (SN12C renal): 11.5 µM
- GI50 (HOP-62 NSCLC): 7.41 µM
- TGI (HOP-62 NSCLC): 15.1 µM
- GI50 (SNB-19 CNS): 7.87 µM
- TGI (SNB-19 CNS): 17 µM
- GI50 (IGROV1 ovarian): 6.95 µM
- TGI (IGROV1 ovarian): 14.9 µM
- GI50 (HCT-15 colon): 0.769 µM
- TGI (HCT-15 colon): 1.68 µM
- GI50 (NCI-H23 lung): 5.38 µM
- TGI (NCI-H23 lung): 12.4 µM
- GI50 (HT29 colon): 1.79 µM
- TGI (HT29 colon): 6.3 µM
- GI50 (COLO 205 colon): 1.08 µM
- TGI (COLO 205 colon): 2.36 µM
- GI50 (HCC-2998 colon): 6.16 µM
- TGI (HCC-2998 colon): 13 µM
- GI50 (BT-549 breast): 2.65 µM
- TGI (BT-549 breast): 8.97 µM
- GI50 (HOP-92 NSCLC): 1.42 µM
- TGI (HOP-92 NSCLC): 3.6 µM
- GI50 (OVCAR-8 ovarian): 2.31 µM
- TGI (OVCAR-8 ovarian): 8.88 µM
- GI50 (M14 melanoma): 1.78 µM
- TGI (M14 melanoma): 7.6 µM
- GI50 (CCRF-CEM leukemia): 0.992 µM
- TGI (CCRF-CEM leukemia): 4.95 µM
- GI50 (T-47D breast): 1.3 µM
- TGI (T-47D breast): 3.94 µM
- GI50 (MALME-3M melanoma): 1.17 µM
- TGI (MALME-3M melanoma): 2.84 µM
- GI50 (A549 NSCLC): 5.88 µM
- TGI (A549 NSCLC): 13.8 µM
- GI50 (MDA-MB-231 breast): 2 µM
- TGI (MDA-MB-231 breast): 7.89 µM
- GI50 (LOX IMVI melanoma): 0.808 µM
- TGI (LOX IMVI melanoma): 1.69 µM
- GI50 (NCI-H460 lung): 7.74 µM
- TGI (NCI-H460 lung): 23.3 µM
- GI50 (SR leukemia): 1.06 µM
- TGI (SR leukemia): 6.44 µM
- GI50 (NCI/ADR-RES ovarian): 6.17 µM
- TGI (NCI/ADR-RES ovarian): 13.7 µM
- GI50 (HS 578T breast): 9.78 µM
- TGI (HS 578T breast): 29.6 µM
- GI50 (UACC-257 melanoma): 3.78 µM
- TGI (UACC-257 melanoma): 10.5 µM
- GI50 (ACHN renal): 0.941 µM
- TGI (ACHN renal): 2.46 µM
- GI50 (K-562 leukemia): 1.76 µM
- TGI (K-562 leukemia): 8.49 µM
- GI50 (UO-31 renal): 0.87 µM
- TGI (UO-31 renal): 1.96 µM
- GI50 (RPMI-8226 leukemia): 1.71 µM
- TGI (RPMI-8226 leukemia): 11.1 µM
- GI50 (NCI-H226 lung): 4.6 µM
- TGI (NCI-H226 lung): 11.2 µM
- GI50 (MCF7 breast): 1.08 µM
- TGI (MCF7 breast): 3.32 µM
- GI50 (SNB-75 CNS): 6.21 µM
- TGI (SNB-75 CNS): 13 µM
- GI50 (HL-60(TB) leukemia): 1.49 µM
- TGI (HL-60(TB) leukemia): 5.64 µM
- GI50 (PC-3 prostate): 5.65 µM
- TGI (PC-3 prostate): 12 µM
- GI50 (HCT-116 colon): 1.17 µM
- TGI (HCT-116 colon): 2.7 µM
- GI50 (EKVX NSCLC): 6.87 µM
- TGI (EKVX NSCLC): 13.3 µM
- GI50 (U251 CNS): 7.96 µM
- TGI (U251 CNS): 15.4 µM
- GI50 (KM12 colon): 8.48 µM
- TGI (KM12 colon): 18.7 µM
- GI50 (DU-145 prostate): 2.19 µM
- TGI (DU-145 prostate): 7.92 µM
- GI50 (NCI-H522 lung): 0.811 µM
- TGI (NCI-H522 lung): 1.66 µM
- GI50 (786-0 renal): 2.63 µM
- TGI (786-0 renal): 8.79 µM
- GI50 (SF-539 CNS): 2.01 µM
- TGI (SF-539 CNS): 7.18 µM
- GI50 (MDA-MB-435): 2.37 µM
- TGI (MDA-MB-435): 9.18 µM
- GI50 (OVCAR-5 ovarian): 5.7 µM
- TGI (OVCAR-5 ovarian): 13.3 µM
- GI50 (OVCAR-3 ovarian): 1.4 µM
- TGI (OVCAR-3 ovarian): 4.38 µM
- GI50 (SF-295 CNS): 7.88 µM
- TGI (SF-295 CNS): 15.4 µM
- GI50 (MOLT-4 leukemia): 1.29 µM
- TGI (MOLT-4 leukemia): 3.53 µM
- GI50 (CAKI-1 renal): 1.28 µM
- TGI (CAKI-1 renal): 4.83 µM
- GI50 (A498 renal): 7.8 µM
- TGI (A498 renal): 15 µM
- GI50 (SW-620 colon): 1.5 µM
- TGI (SW-620 colon): 6.43 µM
- GI50 (SK-MEL-2 melanoma): 5.5 µM
- TGI (SK-MEL-2 melanoma): 12.5 µM
- GI50 (SF-268 CNS): 5.63 µM
- TGI (SF-268 CNS): 13.4 µM
- GI50 (UACC-62 melanoma): 1.87 µM
- TGI (UACC-62 melanoma): 8.22 µM

Reference: PubChem BioAssay (NCI)
